US20100056515A1, “BENZIMIDAZOLE COMPOUNDS” (priority 2006, published 2010)

Molecular target: T1, human CRF receptor (Homo sapiens, UniProt P34998)
T1 construct: expressed in transfected cells; host or cells: CHO cells (membrane fraction)
T1 sequence (P34998 24-415): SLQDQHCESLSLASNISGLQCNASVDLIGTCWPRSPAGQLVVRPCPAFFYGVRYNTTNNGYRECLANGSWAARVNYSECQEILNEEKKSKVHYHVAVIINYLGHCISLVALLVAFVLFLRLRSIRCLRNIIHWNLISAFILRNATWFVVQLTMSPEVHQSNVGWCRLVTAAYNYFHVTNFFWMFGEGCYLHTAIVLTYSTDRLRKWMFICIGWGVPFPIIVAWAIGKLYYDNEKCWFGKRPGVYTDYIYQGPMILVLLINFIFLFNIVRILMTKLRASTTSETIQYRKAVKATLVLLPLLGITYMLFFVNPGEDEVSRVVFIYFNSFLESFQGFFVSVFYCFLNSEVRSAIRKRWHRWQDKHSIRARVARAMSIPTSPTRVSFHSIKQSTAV
Assay: Measurement of CRF Binding Inhibitory Rate (receptor binding experiment with 125I-CRF)
Conditions: human CRF receptor expressing CHO cellular membrane fraction; 50 pM ovine 125I-CRF; 0.05 nM to 10 μM of compound; room temperature 1.5 hr; read-out: IC50 values (CRF binding inhibition)
Procedure: Measurement of CRF Binding Inhibitory Rate
A receptor binding experiment was carried out using a human CRF receptor expressing CHO cellular membrane fraction and ovine CRF, [^125I]-tyr^0(^125I-CRF). 1000 nM of a test compound was incubated with 1 μg of human CRF receptor expressing CHO cellular membrane fraction and 50 pM of ^125I-CRF in a binding assay buffer (50 mM Tris-HCl, 5 mM EDTA, 10 mM MgCl2, 0.05% CHAPS, 0.1% BSA, 0.5 mM PMSF, 0.1 μg/mL pepstatin, 20 μg/mL leupeptin, pH 7.5). In addition, for measuring nonspecific binding (NSB), 0.1 μM unlabelled human Urocortin was incubated with 5 μg of human CRF receptor expressing CHO cellular membrane fraction and 50 pM of ^125I-CRF in a binding assay buffer. After a binding reaction was carried out at room temperature for 1.5 hr, the membrane was entrapped on a glass filter (UniFilter plate GF-C/Perkin Elmer) by suction filtration using a cell harvester (Perkin Elmer), and washed with ice-cooled 50 mM Tris-HCl (pH 7.5). After drying the glass filter, a liquid scintillation cocktail (Microscinti 0, Perkin Elmer) was added, and the radioactivity of ^125I-CRF remaining on a glass filter was measured using Topcount (Perkin Elmer).
(TB-SB)/(TB-NSB)×100 (SB: radioactivity when a compound is added, TB: maximum binding radioactivity, NSB: nonspecific binding radioactivity) were calculated to obtain binding inhibitory rates under the range of the presence from 0.05 nM to 10 μM of each compounds. The IC50 values were calculated by using GraphPad Prism software.

SMILES | IC50 [µM]
CCC(CC)c1ccc(OC)c2nc(Oc3ccc(OC(F)(F)F)cc3Cl)n(C)c12 [Example 1, 2-[2-Chloro-4-(trifluoromethoxy)phenoxy]-7-(1-ethylpropyl)-4-methoxy-1-methyl-1H-benzimidazole] | < 1
CCC(CC)c1ccc(OC)c2nc(Oc3ncc(Br)cc3C)n(C)c12 [Example 8, 2-[(5-Bromo-3-methylpyridin-2-yl)oxy]-7-(1-ethylpropyl)-4-methoxy-1-methyl-1H-benzimidazole] | < 1
CCC(CC)c1ccc(OC)c2nc(Oc3nn(C)c(C)c3C)n(C)c12 [Example 14, 7-(1-Ethylpropyl)-4-methoxy-1-methyl-2-[(1,4,5-trimethyl-1H-pyrazol-3-yl)oxy]-1H-benzimidazole] | < 1
CCC(CC)c1ccc(Cl)c2nc(Oc3c(Cl)cc(Cl)cc3[Si](C)(C)C)n(C)c12 [Example 60, 4-Chloro-2-[2,4-dichloro-6-(trimethylsilyl)phenoxy]-7-(1-ethylpropyl)-1-methyl-1H-benzimidazole] | < 1
CCC(c1cccc2nc(Nc3c(C)cc(Cl)cc3OC)n(C)c12)N(C)C (stereo not drawn) [Example 62, N-(4-Chloro-2-methoxy-6-methylphenyl)-7-[1-(dimethylamino)propyl]-1-methyl-1H-benzimidazol-2-amine] | < 1
CCC(CC)c1ccc(Cl)c2nc(Nc3c(C)cc(Cl)cc3OC)[nH]c12 [Example 67, 4-Chloro-N-(4-chloro-2-methoxy-6-methylphenyl)-7-(1-ethylpropyl)-1H-benzimidazol-2-amine] | < 1

System: not given
Assay: not given
Conditions: not given

SMILES | melting point [°C]
CCC(CC)c1ccc(Cl)c2nc(Oc3c(C)cc([Si](C)(C)C)cc3Cl)n(C)c12 | 146 to 148
CCC(CC)c1ccc(OC)c2nc(Oc3ccc(Cl)cc3CN(C)C)n(C)c12 [Example 9, 1-(5-Chloro-2-{[7-(1-ethylpropyl)-4-methoxy-1-methyl-1H-benzimidazol-2-yl]oxy}phenyl)-N,N-dimethylmethanamine] | 121 to 123
CCC(CC)c1ccc(OC)c2nc(Oc3ccc(C)nc3C(F)(F)F)n(C)c12 [Example 11, 7-(1-Ethylpropyl)-4-methoxy-1-methyl-2-{[6-methyl-2-(trifluoromethyl)pyridin-3-yl]oxy}-1H-benzimidazole] | 135 to 137
CCC(CC)c1ccc(OC)c2nc(Nc3ccc(C(F)(F)F)cc3Cl)n(C)c12 [Example 16, N-[2-Chloro-4-(trifluoromethyl)phenyl]-7-(1-ethylpropyl)-4-methoxy-1-methyl-1H-benzimidazol-2-amine] | 170 to 171
CCC(CC)c1ccc(OC)c2nc(Nc3ccc(Cl)cc3C(F)(F)F)n(C)c12 [Example 17, N-[4-Chloro-2-(trifluoromethyl)phenyl]-7-(1-ethylpropyl)-4-methoxy-1-methyl-1H-benzimidazol-2-amine] | 122 to 123
CCC(CC)c1ccc(OC)c2nc(Nc3ccc(OC(F)(F)F)cc3Cl)n(C)c12 [Example 18, N-[2-Chloro-4-(trifluoromethoxy)phenyl]-7-(1-ethylpropyl)-4-methoxy-1-methyl-1H-benzimidazol-2-amine] | 175 to 177
CCC(CC)c1ccc(OC)c2nc(Nc3ccc(Cl)cc3N(C)C)n(C)c12 [Example 21, 4-Chloro-N^1-[7-(1-ethylpropyl)-4-methoxy-1-methyl-1H-benzimidazol-2-yl]-N^2,N^2-dimethylbenzene-1,2-diamine] | 47 to 49
CCC(CC)c1ccc(Cl)c2nc(Oc3c(Cl)cc(Cl)cc3Br)n(C)c12 [Example 23, 2-(2-Bromo-4,6-dichlorophenoxy)-4-chloro-7-(1-ethylpropyl)-1-methyl-1H-benzimidazole] | 165 to 167
CCC(CC)c1ccc(Cl)c2nc(Oc3c(Cl)cc(Cl)cc3NC)n(C)c12 [Example 28, 3,5-Dichloro-2-{[4-chloro-7-(1-ethylpropyl)-1-methyl-1H-benzimidazol-2-yl]oxy}-N-methylaniline] | 162 to 163
CCC(CC)c1ccc(Cl)c2nc(Oc3c(C)cc(Br)cc3Cl)n(C)c12 [Example 33, 2-(4-Bromo-2-chloro-6-methylphenoxy)-4-chloro-7-(1-ethylpropyl)-1-methyl-1H-benzimidazole] | 163 to 164
CCC(CC)c1ccc(Cl)c2nc(Oc3c(Cl)cc(OC(F)(F)F)cc3Br)n(C)c12 [Example 41, 2-[2-Bromo-6-chloro-4-(trifluoromethoxy)phenoxy]-4-chloro-7-(1-ethylpropyl)-1-methyl-1H-benzimidazole] | 149 to 151
CCC(CC)c1ccc(Cl)c2nc(Nc3c(C)cc([S+](C)[O-])cc3OC)n(C)c12 (stereo not drawn) [Example 46, 4-Chloro-7-(1-ethylpropyl)-N-[2-methoxy-6-methyl-4-(methylsulfinyl)phenyl]-1-methyl-1H-benzimidazol-2-amine] | 222 to 223
CCC(CC)c1ccc(Cl)c2nc(Nc3c(C)cc(S(C)(=O)=O)cc3OC)n(C)c12 [Example 47, 4-Chloro-7-(1-ethylpropyl)-N-[2-methoxy-6-methyl-4-(methylsulfonyl)phenyl]-1-methyl-1H-benzimidazol-2-amine] | 234 to 236
CCC(CC)c1ccc(Cl)c2nc(Nc3c(C)cc(C(N)=O)cc3OC)n(C)c12 [Example 48, 4-{[4-Chloro-7-(1-ethylpropyl)-1-methyl-1H-benzimidazol-2-yl]amino}-3-methoxy-5-methylbenzamide] | 298 to 299
CCC(CC)c1ccc(Cl)c2nc(Nc3c(C)cc(Cl)cc3Br)n(C)c12 [Example 49, N-(2-Bromo-4-chloro-6-methylphenyl)-4-chloro-7-(1-ethylpropyl)-1-methyl-1H-benzimidazol-2-amine] | 232 to 233
CCC(CC)c1ccc(Cl)c2nc(Oc3cccc4c3CN(C)C4)n(C)c12 [Example 54, 4-Chloro-7-(1-ethylpropyl)-1-methyl-2-[(2-methyl-2,3-dihydro-1H-isoindol-4-yl)oxy]-1H-benzimidazole] | 99 to 100
CCC(CC)c1ccc(Cl)c2nc(Nc3c(C)cc(-n4cccn4)cc3OC)n(C)c12 [Example 57, 4-Chloro-7-(1-ethylpropyl)-N-[2-methoxy-6-methyl-4-(1H-pyrazol-1-yl)phenyl]-1-methyl-1H-benzimidazol-2-amine] | 237 to 239
CCC(CC)c1ccc(Cl)c2nc(Nc3c(C)cc(-n4ccc(C(F)(F)F)n4)cc3OC)n(C)c12 [Example 58, 4-Chloro-7-(1-ethylpropyl)-N-{2-methoxy-6-methyl-4-[3-(trifluoromethyl)-1H-pyrazol-1-yl]phenyl}-1-methyl-1H-benzimidazol-2-amine] | 249 to 251
CCc1ccc(C(CC)CC)c2c1nc(Oc1c(C)cc(Cl)cc1Cl)n2C [Example 71, 2-(2,4-Dichloro-6-methylphenoxy)-4-ethyl-7-(1-ethylpropyl)-1-methyl-1H-benzimidazole] | 96 to 97
CCOc1ccc(C(CC)CC)c2c1nc(Oc1ccc(Cl)cc1Br)n2C [Example 72, 2-(2-Bromo-4-chlorophenoxy)-4-ethoxy-7-(1-ethylpropyl)-1-methyl-1H-benzimidazole] | 93 to 94
CCOc1ccc(C(CC)CC)c2c1nc(Oc1c(C)cc(Cl)cc1Cl)n2C [Example 73, 2-(2,4-Dichloro-6-methylphenoxy)-4-ethoxy-7-(1-ethylpropyl)-1-methyl-1H-benzimidazole] | 116 to 117
CCC(CC)c1ccc(OC)c2nc(Oc3ccc(OC(F)(F)F)cc3-n3ccnc3)n(C)c12 [Example 82, 7-(1-Ethylpropyl)-2-[2-(1H-imidazol-1-yl)-4-(trifluoromethoxy)phenoxy]-4-methoxy-1-methyl-1H-benzimidazole] | 168 to 169
CCC(CC(=O)O)c1ccc(Cl)c2nc(Oc3c(C)cc(Cl)cc3Cl)n(C)c12 (stereo not drawn) [Example 99, 3-[4-Chloro-2-(2,4-dichloro-6-methylphenoxy)-1-methyl-1H-benzimidazol-7-yl]pentanoic acid] | 201 to 202
CCC(CC)c1ccc(Cl)c2nc(Nc3ccc(Cl)cc3Cl)n(CCO)c12 [Example 100, 2-[4-Chloro-2-[(2,4-dichlorophenyl)amino]-7-(1-ethylpropyl)-1H-benzimidazol-1-yl]ethanol] | 192 to 193
